# Assay results taken from publication PMC7915588, “Polyphyllin D Shows Anticancer Effect through a Selective Inhibition of Src Homology Region 2-Containing Protein Tyrosine Phosphatase-2 (SHP2)” (Molecules, 2021).
# pIC50: −log10 of the molar value.
# How the values were obtained:
# PTPN14 (PTP36) = target: T1, PTPN14 (PTP36) (Homo sapiens, UniProt Q15678); experiment: biochemical; design: Fluorogenic phosphatase assay, DiFMUP hydrolysis by recombinant PTPs, initial velocity, Ex/Em 355/460 nm; conditions: read-out: Inhibition by 20 µM polyphyllin D (%)
# T1 construct: 908-1187
# T1 sequence (Q15678 1-1187): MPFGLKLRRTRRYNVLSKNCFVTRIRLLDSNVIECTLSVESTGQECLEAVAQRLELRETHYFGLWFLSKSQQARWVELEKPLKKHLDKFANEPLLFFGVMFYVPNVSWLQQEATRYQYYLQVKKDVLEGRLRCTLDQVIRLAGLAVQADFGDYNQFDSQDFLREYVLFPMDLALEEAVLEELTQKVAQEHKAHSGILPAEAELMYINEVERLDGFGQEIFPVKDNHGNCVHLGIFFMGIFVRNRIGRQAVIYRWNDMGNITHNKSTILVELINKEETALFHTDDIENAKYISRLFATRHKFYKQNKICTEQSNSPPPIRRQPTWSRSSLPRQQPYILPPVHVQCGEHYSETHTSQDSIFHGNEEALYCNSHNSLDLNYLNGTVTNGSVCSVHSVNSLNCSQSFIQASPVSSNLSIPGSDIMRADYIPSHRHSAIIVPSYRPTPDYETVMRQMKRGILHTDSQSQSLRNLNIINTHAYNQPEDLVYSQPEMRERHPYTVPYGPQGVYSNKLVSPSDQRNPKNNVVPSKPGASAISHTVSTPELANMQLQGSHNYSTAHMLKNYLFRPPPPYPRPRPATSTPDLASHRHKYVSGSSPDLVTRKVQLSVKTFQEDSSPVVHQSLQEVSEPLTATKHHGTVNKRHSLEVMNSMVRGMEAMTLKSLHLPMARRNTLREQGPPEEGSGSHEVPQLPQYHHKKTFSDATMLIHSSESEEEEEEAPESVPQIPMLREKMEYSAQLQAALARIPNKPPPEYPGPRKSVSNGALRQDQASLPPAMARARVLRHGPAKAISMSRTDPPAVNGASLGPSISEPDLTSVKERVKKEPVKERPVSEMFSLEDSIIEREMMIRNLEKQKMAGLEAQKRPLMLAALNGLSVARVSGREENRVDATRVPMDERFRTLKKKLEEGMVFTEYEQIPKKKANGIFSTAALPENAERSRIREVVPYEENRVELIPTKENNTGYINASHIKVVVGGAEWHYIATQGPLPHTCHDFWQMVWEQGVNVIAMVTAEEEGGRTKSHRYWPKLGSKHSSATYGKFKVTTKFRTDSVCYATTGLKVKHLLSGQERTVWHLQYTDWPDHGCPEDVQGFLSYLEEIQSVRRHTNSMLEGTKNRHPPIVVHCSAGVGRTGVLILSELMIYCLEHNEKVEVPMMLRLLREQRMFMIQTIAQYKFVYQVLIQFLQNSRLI
# Protocol: Enzymatic reactions were initiated by the addition of SHP2 (final concentration of 10 nM) to a solution of each of the 658 phytochemical compounds (final concentration of 20 µM) in reaction buffer (20 mM bis-tris pH 6.0, 150 mM NaCl, 2.5 mM dithiothreitol, and 0.01% Triton X-100) containing DiFMUP (final concentration of 140 µM). Changes in the fluorescence intensities were measured continuously for 10 min at Ex/Em = 355/460 nm on a VictorTM X4 multilabel plate reader. Enzyme inhibition was estimated by comparing the reaction velocity in the presence of each compound with that in the absence of any compound. Inhibition of the other PTPs was measured in the same way. Next, we established a screening strategy using a DiFMUP substrate to identify a natural product that inhibits SHP2 activity. Initially, we screened 658 compounds at 20 µM using a 96-well plate system (Figure 2A). […] The selected compounds were tested at 20 µM for SHP2 inhibition, and 14 additional non-receptor-type PTPs (PTP1B, TCPTP, PTPH1, STEP, SHP1, HePTP, PTP-MEG2, PTP-PEST, PTP-BAS, PTP36, PTP-HSCF, PTPD1, LYP, and HD-PTP) were used to investigate the inhibition selectivity. The results were visualized using a heat map analysis by GraphPad Prism (Figure 2B and Table S2 in Supplementary Materials). To identify new SHP2 anticancer natural products, we first performed cloning to express SHP2 protein and then purified it. PTPN11 (Gene ID: 5781) encoding human SHP2 (amino acids sequences 1 to 526) with several extra amino acids were cloned into the MBP-pET 28a (+) vector, which was successfully used to overexpress PTPs with enhanced solubility in an Escherichia coli expression system. Information on amino acids for 15 non-receptor-type PTPs including SHP2 is summarized in Table S3 in the Supplementary Materials. SHP2 was overexpressed in RosettaTM (DE3) and purified using a metal affinity resin (Figure S1 in Supplementary Materials). […] The kcat, KM, and kcat/KM values were determined to be 270 min^−1, 70 μM, and 3.9 μM^−1min^−1, respectively, using the Lineweaver–Burk plot analysis (Table S1 in Supplementary Materials).
# SHP2 = target: T2, SHP2 (Homo sapiens, UniProt Q06124); experiment: DiFMUP fluorogenic phosphatase assay, dose-response and Hill plot; format: biochemical
# T2 construct: gene PTPN11
# T2 sequence (Q06124 1-526): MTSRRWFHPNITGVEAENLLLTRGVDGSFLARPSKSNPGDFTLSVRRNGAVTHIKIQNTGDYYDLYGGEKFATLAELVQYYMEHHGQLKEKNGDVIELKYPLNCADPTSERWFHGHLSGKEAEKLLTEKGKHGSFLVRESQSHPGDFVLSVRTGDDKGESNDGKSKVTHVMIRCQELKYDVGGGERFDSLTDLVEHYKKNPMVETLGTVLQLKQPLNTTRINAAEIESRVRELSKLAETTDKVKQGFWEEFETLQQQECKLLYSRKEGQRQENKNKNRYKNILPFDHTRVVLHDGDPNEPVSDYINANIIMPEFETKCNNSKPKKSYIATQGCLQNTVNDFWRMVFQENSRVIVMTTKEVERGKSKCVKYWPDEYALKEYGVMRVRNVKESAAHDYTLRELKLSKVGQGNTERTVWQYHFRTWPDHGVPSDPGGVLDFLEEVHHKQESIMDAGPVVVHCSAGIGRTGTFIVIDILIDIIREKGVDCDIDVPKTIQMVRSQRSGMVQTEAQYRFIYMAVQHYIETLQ
smiles,measurement,setting,value
C[C@@H]1CC[C@@]2(OC1)O[C@H]1C[C@H]3[C@@H]4CC=C5C[C@@H](O[C@@H]6O[C@H](CO)[C@@H](O[C@@H]7O[C@@H](CO)[C@H](O)[C@H]7O)[C@H](O)[C@H]6O[C@@H]6O[C@@H](C)[C@H](O)[C@@H](O)[C@H]6O)CC[C@]5(C)[C@H]4CC[C@]3(C)[C@H]1[C@@H]2C [polyphyllin D],inhibition at 20 µM,PTPN14 (PTP36),0%
same,pIC50,SHP2,4.82
